Among the data in PubChem BioAssay (NCI) are GI50 and TGI values, retold here.

Several values for one entry are separate records, joined by “and”; a condition that tells them apart may be missing. Equal values may be shown once.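 Following 48 hours of exposure in 96-well plates, responses at five concentrations were used to interpolate endpoints linearly. The concentration for 50% growth inhibition is given as GI50. The concentration for full growth arrest is given as TGI.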

Assay in all cases: growth of human tumour cells (NCI), 48 h
Experiment [1] has as its system SF-295 CNS.
In experiment [2] the test system is UACC-257 melanoma.
Experiment [3] deals with UACC-62 melanoma.
The subject of experiment [4] is U251 CNS.
In experiment [5] the test system is CAKI-1 renal.
Experiment [6] has as its system HCC-2998 colon.
Experiment [7] deals with EKVX NSCLC.
The subject of experiment [8] is SNB-75 CNS.
The test system of experiment [9] is SK-MEL-2 melanoma.
Experiment [10] has as its system SK-MEL-28 melanoma.

As for `CS(=O)(=O)N(c1cc(-c2ccc3ncnc(Nc4ccc(F)c(Cl)c4)c3c2)cnc1Cl)S(C)(=O)=O`, the GI50 is 1.25 µM in experiment [1]; 1.11 µM in [2]; 0.49 µM in experiment [3]; 1.15 µM in [4]; 0.553 µM in [5]; 1.58 µM in experiment [6]. In addition, the GI50 in experiment [7] was 0.649 µM; in experiment [8], 0.0739 µM; in [9], 1.16 µM; in [10], 0.54 µM. Further, the TGI came out at 4.92 µM in experiment [1]; 14.5 µM in experiment [2]; 2.93 µM in experiment [3]; 13.4 µM in experiment [4]; 3.98 µM in experiment [5]; 8.43 µM in experiment [6]. Moreover, the TGI in experiment [7] is 5.19 µM; in experiment [8] it was 0.698 µM; in experiment [9], 4.01 µM; in experiment [10], 4.93 µM.
Regarding `Nc1cccc2c1C(=O)c1cccc(NC(=O)c3ccccc3)c1C2=O`, the GI50 was 0.166 µM in experiment [1]; 0.614 µM in experiment [2]; 0.221 µM in experiment [3]; 0.54 µM in [4]; 0.229 µM in experiment [5]; 2.79 µM in experiment [6]. Also, the GI50 in experiment [7] was 0.421 µM; in experiment [8], 0.28 µM; in [9] it was 0.25 µM; in experiment [10], 1.11 µM. Besides, the TGI in [1] was 1.35 µM; in experiment [2] it was 64.8 µM; in experiment [3] it was 14 µM; in experiment [4] it was 13.8 µM; in experiment [5], 3.01 µM; in [6] it was more than 100 µM. In addition, the TGI in experiment [7] turned out to be 4.52 µM; in [8] it was 3.88 µM; in experiment [9], 7.26 µM; in [10] it was 21 µM.
As for `CNC(=O)c1ccccc1Nc1nc(Nc2ccc3c(c2OC)CCC[C@H](N2CCN(CCO)CC2)C3)ncc1Cl`, the GI50 in experiment [1] is 1.71 µM and 1.49 µM; in [2], 1.52 µM and 1.29 µM; in [3], 1.58 µM and 1.35 µM; in experiment [4], 2.43 µM and 2.27 µM; in experiment [5] it was 0.69 µM and 1.06 µM; in experiment [6], 1.89 µM and 1.56 µM. In addition, the GI50 in experiment [7] was 1.75 µM and 1.72 µM; in experiment [8] it was 1.88 µM and 2.49 µM; in experiment [9], 1.56 µM and 0.613 µM; in experiment [10] it was 1.39 µM and 1.73 µM. In addition, the TGI in experiment [1] is 3.79 µM and 3.42 µM; in experiment [2], 3.87 µM and 3.42 µM; in experiment [3], 4.02 µM and 3.39 µM; in experiment [4], 13.3 µM and > 10 µM; in experiment [5], 13.1 µM and > 10 µM; in [6] it was 11.5 µM and > 10 µM. The TGI is 13.7 µM and > 10 µM in experiment [7]; 12.6 µM and > 10 µM in experiment [8]; 5.9 µM and 2.7 µM in experiment [9]; 3.11 µM and 4.46 µM in [10].
On to `C[N+](C)=c1ccc2nc3c(cc(NCCCNc4cc5oc6cc(=[N+](C)C)ccc-6nc5c5ccccc45)c4ccccc43)oc-2c1`, for which the GI50 in experiment [1] was 4.64 µM; in [2] it was 4.34 µM; in experiment [3], 2.3 µM; in [4] it was 2.36 µM; in [5], 12.7 µM; in experiment [6], 1.77 µM. For the same molecule, the GI50 in experiment [7] was 4.77 µM; in experiment [8] it was 1.56 µM; in experiment [9], 15 µM; in [10], 3.77 µM. In addition, the TGI in experiment [1] was determined as 31.8 µM; in experiment [2] it was 16.3 µM; in experiment [3] it was 6.88 µM; in experiment [4], 5.87 µM; in experiment [5] it was 35.4 µM; in experiment [6], 3.47 µM. The TGI in experiment [7] is 18.5 µM; in [8] it was 3.64 µM; in [9], 45.7 µM; in [10], 14.7 µM.
As to `COc1cc(CNc2oc(-c3ccccc3)c(-c3ccccc3)c2C#N)cc(CN2CCN(C)CC2)c1O`, the GI50 is 1.87 µM in experiment [1]; 1.84 µM in experiment [2]; 1.77 µM in [3]; 1.76 µM in [4]; 1.68 µM in experiment [5]; 1.79 µM in experiment [6]. The GI50 in [7] is 1.81 µM; in experiment [8], 1.33 µM; in [9], 2.17 µM; in experiment [10] it was 1.78 µM. The TGI in experiment [1] is 3.49 µM; in [2] it was 3.71 µM; in experiment [3] it was 3.47 µM; in experiment [4], 3.58 µM; in [5], 3.17 µM; in experiment [6], 3.36 µM. In addition, the TGI was 3.59 µM in [7], 2.94 µM in [8], 4.56 µM in experiment [9] and 3.24 µM in experiment [10].
For `COc1cc(NCCCCCN=C(N)NC(N)=NC(C)C)c2ncccc2c1`, the GI50 in experiment [1] was 13 µM; in experiment [2], 1.04 µM; in experiment [3], 2.69 µM; in experiment [4], 1.69 µM; in experiment [5], more than 73.1 µM; in experiment [6], 0.952 µM. Besides, the GI50 in [7] was 2.28 µM; in experiment [8], 0.666 µM; in [9], 1.95 µM; in [10] it was 2.92 µM. Besides, the TGI in [1] is 29.2 µM; in experiment [2], 4.81 µM; in [3], 8.96 µM; in [4], 11.8 µM; in experiment [5], more than 100 µM; in [6] it was 4.96 µM. Also, the TGI in [7] amounted to 18.5 µM; in [8], 4.4 µM; in [9] it was 5.36 µM; in [10], 10.4 µM.
`COC(=O)C1CCc2nnc(-c3ccccc3)n21` (stereo not given): the TGI in experiment [1], in [2], in [3], in [4], in [5] and in experiment [6] was more than 100 µM throughout. The TGI in experiment [7], in experiment [8], in experiment [9] and in experiment [10] was more than 100 µM throughout.
In the case of `CNC(=O)c1cncc(/C=C/c2ccccc2Cl)c1`, the GI50 in experiment [1], in experiment [2], in [3], in experiment [4], in experiment [5] and in [6] was more than 25 µM each time. The GI50 in [7] was more than 25 µM; in [8], more than 19.7 µM; in [9], more than 25 µM; in [10], more than 25 µM. For the same molecule, the TGI in experiment [1], in experiment [2], in experiment [3], in experiment [4], in experiment [5] and in experiment [6] was more than 25 µM in each case. For the same molecule, the TGI in [7], in [8], in experiment [9] and in experiment [10] was more than 25 µM each time.
Turning to `O=C1NC(c2ccccc2)C2(C(=O)O)CN(C3CC3)c3cc(N4CCNCC4)c(F)cc3C2N1` (stereo not given), the GI50 in experiment [1], in experiment [2], in [3], in [4], in experiment [5] and in experiment [6] was more than 100 µM in each case. Also, the GI50 in [7], in experiment [8], in [9] and in experiment [10] was more than 100 µM each time. Also, the TGI in experiment [1], in experiment [2], in experiment [3], in [4], in experiment [5] and in experiment [6] was more than 100 µM throughout. For the same molecule, the TGI in [7], in experiment [8], in [9] and in experiment [10] was more than 100 µM in each case.
Regarding `C=C1CCC2C3(C)COC(c4ccccc4Cl)OC3CCC2(C)C1/C=C/C1=CCOC1=O` (stereo not given), the GI50 in experiment [1] is 3.48 µM; in experiment [2], 9.09 µM; in experiment [3], 11.2 µM; in experiment [4], 24 µM; in experiment [5], 4.08 µM; in experiment [6] it was 21.1 µM. In addition, the GI50 in [7] is 2.82 µM; in [8] it was more than 100 µM; in experiment [9], 77.7 µM; in [10], more than 100 µM. Also, the TGI in experiment [1], in [2], in experiment [3], in experiment [4], in experiment [5] and in experiment [6] was more than 100 µM in each case. Moreover, the TGI in experiment [7], in [8], in [9] and in experiment [10] was more than 100 µM throughout.
As for `O=c1c2cc3ccccc3n2c(=O)c2cc3ccccc3n12`, the TGI in experiment [1], in experiment [2], in experiment [3], in [4], in experiment [5] and in experiment [6] was more than 100 µM in each case. Moreover, the TGI in experiment [7], in [8], in experiment [9] and in experiment [10] was more than 100 µM each time.
